Source: EPA's ToxRefDB 2

How the values were obtained:
rat [1] = details: Developmental neurotoxicity study; long evans; Injection; Intraperitoneal; dose end: 80 PND; group: cannot be grouped; systemic / in life observation / body weight / offspring (pup) weight + systemic / in life observation / clinical signs / abnormal movements…
rat [2] = details: Prenatal developmental toxicity study, other, Oral, Gavage/Intubation, dose end: 16 GD, group: maternal
rat [3] = details: Combined chronic toxicity/carcinogenicity, sprague dawley, Oral, Feed, dose end: 24 month
dog [4] = details: Subchronic oral toxicity in nonrodent, beagle, Feed, dose end: 103 day
rat [5] = details: Subchronic oral toxicity in rodents, Charles River Crl:CD BR, Feed, dose end: 6 week
mouse [6] = details: Carcinogenicity, cd1, Oral, Feed, dose end: 18 month, group: systemic
dog [7] = details: Chronic toxicity, beagle, Oral, Feed, dose end: 52 week
mouse [8] = details: Subchronic oral toxicity in rodents, cd1, Feed, dose end: 7 week
rat [9] = details: Subchronic oral toxicity in rodents, other, Feed, dose end: 90 day
dog [10] = details: Subchronic oral toxicity in nonrodent, beagle, Feed, dose end: 26 week
rabbit = details: Prenatal developmental toxicity study, new zealand white, Oral, Gavage/Intubation, dose end: 19 GD, group: maternal
[11] = systemic / in life observation / body weight / body weight gain + systemic / in life observation / mortality / mortality + reproductive / …
[12] = systemic / in life observation / body weight / body weight gain + systemic / in life observation / mortality / mortality + systemic / in …
[13] = group: cholinesterase, cholinesterase / cholinesterase / cholinesterase / erythrocyte cholinesterase (che)
[14] = group: systemic, systemic / clinical chemistry / sodium / sodium
[15] = group: cholinesterase, cholinesterase / cholinesterase / cholinesterase / brain (regional) cholinesterase (che) + cholinesterase / cholinesterase / cholinesterase…
[16] = group: systemic, systemic / clinical chemistry / albumin / albumin + systemic / clinical chemistry / calcium / calcium + systemic / clinical chemistry / …
[17] = group: cholinesterase, cholinesterase / cholinesterase / cholinesterase / brain cholinesterase (che)
[18] = group: cholinesterase, cholinesterase / cholinesterase / cholinesterase / brain cholinesterase (che) + cholinesterase / cholinesterase / cholinesterase / plasma …
[19] = group: systemic, systemic / in life observation / body weight / body weight gain
[20] = group: systemic, systemic / in life observation / body weight / body weight gain + systemic / in life observation / body weight / body weight
[21] = systemic / in life observation / body weight / body weight gain + systemic / in life observation / clinical signs / fur (altered appearance…
[22] = group: cholinesterase, cholinesterase / cholinesterase / cholinesterase / erythrocyte cholinesterase (che) + cholinesterase / cholinesterase / cholinesterase / …
[23] = group: systemic, systemic / clinical chemistry / albumin / albumin + systemic / clinical chemistry / alkaline phosphatase (alp/alk) / alkaline phosphatase (…
[24] = group: cholinesterase, cholinesterase / cholinesterase / cholinesterase / plasma cholinesterase (che)
[25] = group: systemic, systemic / in life observation / body weight / body weight gain + systemic / in life observation / mortality / mortality + systemic / in …
[26] = group: cholinesterase, cholinesterase / cholinesterase / cholinesterase / brain cholinesterase (che) + cholinesterase / cholinesterase / cholinesterase / …
[27] = group: systemic, systemic / in life observation / clinical signs / body surface staining + systemic / in life observation / clinical signs / hunched posture…
[28] = group: systemic, systemic / in life observation / clinical signs / defecation (diarrhea)
[29] = group: systemic, systemic / in life observation / clinical signs / defecation (diarrhea) + systemic / in life observation / clinical signs / distended …
[30] = reproductive / reproductive performance / resorptions / resorptions + systemic / in life observation / body weight / body weight gain + …

`N#CCCNCCC#N` [3,3'-Iminobispropanenitrile] showed an LEL (rat [1]) of 300 mg/kg/day, an LOAEL (rat [1]) greater than 300 mg/kg/day and an NEL (rat [1]) of 150 mg/kg/day. For the same molecule, the NOAEL (rat [1]) was no less than 300 mg/kg/day.

`CCOP(=S)(OCC)OC(Cl)C(Cl)(Cl)Cl` (configuration not stated) [Chlorethoxyfos] gave an LEL (rat [2]; [11]) of 0.5 mg/kg/day, an LOAEL (rat [2]; [11]) of 0.5 mg/kg/day and an NEL (rat [2]; [12]) of 0.25 mg/kg/day. The NOAEL (rat [2]; [12]) was 0.25 mg/kg/day, the LEL (rat [3]; [13]) was 0.311 mg/kg/day and the LOAEL (rat [3]; [13]) was 0.311 mg/kg/day. The NEL (rat [3]; [13]) was 0.154 mg/kg/day, the NOAEL (rat [3]; [13]) was 0.154 mg/kg/day and the LEL (rat [3]; [14]) was 0.416 mg/kg/day. For the same molecule, the LOAEL (rat [3]; [14]) was greater than 0.416 mg/kg/day, the NEL (rat [3]; [14]) was 0.208 mg/kg/day and the NOAEL (rat [3]; [14]) was no less than 0.416 mg/kg/day. The LEL (dog [4]; [15]) was 0.125 mg/kg/day, the LOAEL (dog [4]; [15]) was 0.125 mg/kg/day and the NEL (dog [4]; [15]) was 0.0125 mg/kg/day. The NOAEL (dog [4]; [15]) was 0.0125 mg/kg/day, the LEL (dog [4]; [16]) was 1.25 mg/kg/day and the LOAEL (dog [4]; [16]) was greater than 1.25 mg/kg/day. It also gave an NEL (dog [4]; [16]) of 0.125 mg/kg/day, an NOAEL (dog [4]; [16]) of no less than 1.25 mg/kg/day and an LEL (rat [5]; [17]) of 0.66 mg/kg/day. For the same molecule, the LOAEL (rat [5]; [17]) was 0.66 mg/kg/day, the NEL (rat [5]; [18]) was 0.132 mg/kg/day and the NOAEL (rat [5]; [18]) was 0.132 mg/kg/day. The LOAEL (rat [5]; [19]) was 0.958 mg/kg/day, the LEL (rat [5]; [20]) was 0.958 mg/kg/day and the NEL (rat [5]; [20]) was 0.477 mg/kg/day. It also gave an NOAEL (rat [5]; [20]) of 0.477 mg/kg/day, an LOAEL (mouse [6]; [21]) of 14.9 mg/kg/day and an NEL (mouse [6]; [21]) of 0.337 mg/kg/day. The NOAEL (mouse [6]; [21]) was 3.25 mg/kg/day, the LEL (mouse [6]; systemic / pathology gross / skin / discolored) was 3.25 mg/kg/day and the LEL (dog [7]; [22]) was 0.591 mg/kg/day. The LOAEL (dog [7]; [22]) was 0.591 mg/kg/day, the NEL (dog [7]; [22]) was 0.065 mg/kg/day and the NOAEL (dog [7]; [22]) was 0.065 mg/kg/day. For the same molecule, the LOAEL (dog [7]; group: systemic, systemic / clinical chemistry / albumin / albumin) was 1.86 mg/kg/day, the NEL (dog [7]; [23]) was 0.065 mg/kg/day and the NOAEL (dog [7]; [23]) was 0.591 mg/kg/day. The LEL (dog [7]; group: systemic, systemic / clinical chemistry / calcium / calcium) was 0.591 mg/kg/day, the LEL (mouse [8]; [24]) was 0.15 mg/kg/day and the LOAEL (mouse [8]; [24]) was 0.15 mg/kg/day. For the same molecule, the NEL (mouse [8]; [24]) was 0.015 mg/kg/day, the NOAEL (mouse [8]; [24]) was 0.015 mg/kg/day and the LOAEL (mouse [8]; [19]) was 11.2 mg/kg/day. For the same molecule, the LEL (mouse [8]; group: systemic, systemic / in life observation / body weight / body weight gain + systemic / in life observation / body weight / body weight + systemic / in…) was 11.2 mg/kg/day, the NEL (mouse [8]; [25]) was 0.15 mg/kg/day and the NOAEL (mouse [8]; [25]) was 0.15 mg/kg/day. It also gave an LEL (rat [9]; [26]) of 0.635 mg/kg/day, an LOAEL (rat [9]; [26]) greater than 1.64 mg/kg/day and an NEL (rat [9]; [26]) of 0.08 mg/kg/day. The NOAEL (rat [9]; [26]) was no less than 1.64 mg/kg/day, the LEL (rat [9]; [27]) was 1.23 mg/kg/day and the LOAEL (rat [9]; [27]) was 1.23 mg/kg/day. The NEL (rat [9]; [27]) was 0.635 mg/kg/day, the NOAEL (rat [9]; [27]) was 0.635 mg/kg/day and the LEL (dog [10]; [24]) was 0.061 mg/kg/day. The LOAEL (dog [10]; [24]) was 0.578 mg/kg/day, the NEL (dog [10]; [24]) was less than 0.061 mg/kg/day and the NOAEL (dog [10]; group: cholinesterase, cholinesterase / cholinesterase / cholinesterase / plasma cholinesterase (che) + cholinesterase / cholinesterase / cholinesterase / brain (…) was 0.061 mg/kg/day. For the same molecule, the LEL (dog [10]; [28]) was 0.578 mg/kg/day, the LOAEL (dog [10]; [28]) was 0.578 mg/kg/day and the NEL (dog [10]; [29]) was 0.061 mg/kg/day. The NOAEL (dog [10]; [29]) was 0.061 mg/kg/day, the LOAEL (rabbit; reproductive / reproductive performance / resorptions / resorptions) was 3.1 mg/kg/day and the LEL (rabbit; [30]) was 3.1 mg/kg/day. The NEL (rabbit; [30]) was 1.38 mg/kg/day and the NOAEL (rabbit; [30]) was 1.38 mg/kg/day.
